Columns and labels:
[1] = spectrophotometric test with 2,2-diphenyl-1-picrylhydrazyl (DPPH), radical scavenging activity; type: biochemical; conditions: for radical scavenging activity (in words): DPPH test, summary of Tables 1 and 2
Procedure: Evidence of the radical scavenging activity of the main ingredients of the formulations prepared, VB, HANa, GPI, were obtained with in vitro tests.
The anti-radical activity of VB alone and in combination with HANa and GPI was analyzed by spectrophotometric test with 2,2-diphenyl-1-picrylhydrazyl (DPPH). The samples were prepared respecting the proportions provided in the formulation.

[2] = titre of components in the muco-adhesive solution on storage at room temperature; type: physicochemical
[3] = storage stability of verbascoside with and without water; type: physicochemical
Description: Therefore, in a more preferred embodiment, the ternary association of the invention is formulated in dry form or with liquid or semi-solid anhydrous ingredients. If the final formulation requires one or more aqueous ingredients, verbascoside is preferably packaged separately in conditions of absence of water (or in the dry state or with semi-solid/liquid anhydrous ingredients) and stored in that form; a preferred semi-solid form is represented by glycerogel, or gelled semi-solid and non hydrated forms with a glycerin base; upon use, verbascoside is combined with the aqueous components, obtaining the final aqueous formulation, ready for administration. The separate packaging of the above ingredients is achievable by generally known means, e.g. double chamber bags, twin-bag double chamber dispensers, etc.

[4] = molecular target: T1, iNOS (inducible nitric oxide synthase) (Homo sapiens, UniProt P35228); conditions: THP-1 cells stimulated with LPS and IFN-γ; cited from earlier work
T1 construct: human THP-1 leukemia cells stimulated with pro-inflammatory stimuli (e.g. LPS and IFN-γ) in which the activity of iNOS is overexpressed; endogenous in cells; host or cells: human THP-1 leukemia cells stimulated with LPS and IFN-γ

[5] = system: inflammatory chemokines such as GM-GCSF, IL-8, IP-10 and MCP-1; conditions: human keratinocytes stimulated with TNFα or IFN-γ; cited from earlier work
periodontitis model = conditions: rats, cited from earlier work
[6] = muco-adhesive solution of Example 6
[7] = muco-adhesive solution of Example 7, solution pH 4.4, viscosity 145 mPas s
[8] = muco-adhesive solution of Example 8, solution pH 4.4, viscosity 60 mPas s
[9] = muco-adhesive solution of Example 9, iota carrageenan solution, pH 4.3

Molecule | radical scavenging activity (in words) [1] | % titre at 30 days at room temperature [2, 6] | Initial % titre [2, 6] | % titre at 10 days at room temperature [2, 7] | Initial % titre [2, 7] | % titre at 10 days at room temperature [2, 8] | Initial % titre [2, 8] | % titre at 30 days at room temperature [2, 9] | Initial % titre [2, 9] | also measured
O=P(O)(OC[C@H](O)CO)OC1[C@H](O)[C@H](O)C(O)[C@H](O)[C@H]1O (stereo partly drawn) [GPI, Inositol glycerophosphate] | essentially showed no activity | 98.2% | 99.5% | 102.88% | 99.63% | 102.24% | 98.17% | 100.8% | 100.6% | Radical scavenging activity (%) ([1]; concentration 78 mg/L): 1%
C[C@@H]1O[C@@H](O[C@@H]2[C@@H](O)[C@H](OCCc3ccc(O)c(O)c3)O[C@H](CO)[C@H]2OC(=O)/C=C/c2ccc(O)c(O)c2)[C@H](O)[C@H](O)[C@H]1O [VB, Verbascoside] | clear | 92.5% | 99.6% | 98.71% | 101.68% | 98.55% | 102.2% | 92.9% | 101.7% | Radical scavenging activity (%) ([1]; VB concentration 3.3 μM (2.1 mg/L)): 15%; Radical scavenging activity (%) ([1]; VB concentration 6.6 μM (4.1 mg/L)): 24%; Radical scavenging activity (%) ([1]; VB concentration 13.2 μM (8.3 mg/L)): 42%; Radical scavenging activity (%) ([1]; VB concentration 26.5 μM (16.6 mg/L)): 76%; Radical scavenging activity (%) ([1]; VB concentration 53 μM (33.1 mg/L)): 95%; Radical scavenging activity (%) ([1]; concentration 15.6 mg/L): 74%; time for which a high titre is maintained ([2]; after extemporaneous incorporation with the aqueous component, room temperature): at least 30 days; stability ([3]; in an aqueous medium): particularly labile; stability upon storage ([3]; stored in the absence of water): particularly stable; expression and activity of iNOS and superoxide radicals [4]: significant decrease; inflammatory chemokines such as GM-GCSF, IL-8, IP-10 and MCP-1 [5]: reduces in a dose-dependent manner; parameters of inflammation (periodontitis model; oral administration 2 mg/kg/day for 8 days): significantly reduces; anti-inflammatory effect (periodontitis model; periodontitis model): marked anti-inflammatory effect
Hyaluronic acid sodium salt [HANa] | essentially showed no activity | 100.7% | 101.3% | 96.26% | 99.32% | 96.26% | 98.48% | 114.9% | 114.6% | Radical scavenging activity (%) ([1]; concentration 62.4 mg/L): 1%

Source: patent US20160113960A1, “TOPICAL PREPARATIONS COMPRISING HYALURONIC ACID, VERBASCOSIDE AND GLYCEROPHOSPHOINOSITOL” (ALTERGON S.A., priority 2013, published 2016)
